From patent US11937603B2, “Maleimide derivatives having herbicidal activity, agronomic compositions of the maleimide derivatives, and uses thereof” (Gowan Company, LLC, priority 2018, dated 2024)

What was measured:
Assay type in all cases: in vivo
[1] = tested on: Digitaria sanguinalis; assay: Herbicidal activity in post-emergence; details: dose of 250 g/ha, post-emergence (BBCH 11-12), twenty-one days after treatment, vs untreated control
Method: (§1) The herbicidal activity of the compounds of the invention in post-emergence was evaluated according to the following operating modes.
(§2) The plant species of interest (weeds or crops) were sown in pots with a diameter greater than 10 cm, a height of 10 cm and containing sandy soil. Six pots were used for each plant species.
(§3) Water was added to each pot in an amount suitable for the germination of the seeds. The pots were then divided into two groups each containing 3 pots for each weed or crop.
(§4) Upon reaching the phenological stage of the plants with 1-2 extended leaves (BBCH 11-12), the first group of pots was treated with the same hydroacetone dispersion containing 20% acetone by volume, the compound under evaluation at the desired dose and Tween 20 at 0.5% by weight, indicated in Example 6.
(§5) The second group was treated only with a hydroacetone solution containing acetone at 20% by volume and Tween 20 at 0.5% by weight, and was used as a comparison term (control).
(§6) All the pots were kept under observation in a conditioned environment (greenhouse) under the following environmental conditions: • temperature: 24° C. during the day and 18° C. at night • relative humidity: >50% • photoperiod: 16 hours; • light intensity: 12,000 lux.
(§7) The pots were uniformly watered as needed, so as to ensure a degree of humidity sufficient for a good development of the plants.
(§8) Twenty-one days after treatment, the herbicidal activity was evaluated according to the percentage of damage (scale 0-100%) found on the treated plants compared to the untreated plants (control): • 0%=No effect on the plants • 100%=Complete death of the plants
(§9) Nrs. 11,4,2,3 compared with a hydroacetone dispersion containing the Compound CR1 described in EP0297378.

[2] = tested on: Echinochloa crus-galli; assay: Herbicidal activity in post-emergence; details: dose of 250 g/ha, post-emergence (BBCH 11-12), twenty-one days after treatment, vs untreated control
Method: as §1, §2, §3, §4, §5, §6, §7, §8, §9

[3] = tested on: Sida spinosa; assay: Herbicidal activity in post-emergence; details: dose of 250 g/ha, post-emergence (BBCH 11-12), twenty-one days after treatment, vs untreated control
Method: as §1, §2, §3, §4, §5, §6, §7, §8, §9

[4] = tested on: Abutilon theophrasti; assay: Herbicidal activity in pre-emergence; details: dose of 250 g/ha, twenty-one days after treatment, vs untreated control
Method: (§10) The herbicidal activity of the compounds of the invention in pre-emergence was evaluated according to the following operating modes.
(§11) The plant species of interest (weeds or crops) were sown in pots with a diameter of 10 cm, a height of 10 cm and containing sandy soil. Six pots of each plant species were used.
as §3
(§12) One day after sowing, the first group of pots was treated with a dispersion having the following composition:
(§13) The dispersion was prepared by adding a desired dose of a compound of the present invention to a hydroacetone solution containing acetone at 20% by volume and Tween 20 at 0.5% by weight, with respect to the total weight of the dispersion and applied on a surface of 2 square meters. […]
as §5, §6, §7, §8
(§14) Nrs. 4 and 2 compared with a dispersion containing the Compound CR1 described in EP0297378 instead of the compound having general formula (I): […]

[5] = tested on: Amaranthus retroflexus; assay: Herbicidal activity in pre-emergence; details: dose of 250 g/ha, twenty-one days after treatment, vs untreated control
Method: as §10, §11, §3, §12, §13, §5, §6, §7, §8, §14

[6] = tested on: Lolium rigidum; assay: Herbicidal activity in pre-emergence; details: dose of 250 g/ha, twenty-one days after treatment, vs untreated control
Method: as §10, §11, §3, §12, §13, §5, §6, §7, §8, §14

[7] = tested on: Setaria viridis; assay: Herbicidal activity in pre-emergence; details: dose of 250 g/ha, twenty-one days after treatment, vs untreated control
Method: as §10, §11, §3, §12, §13, §5, §6, §7, §8, §14

[8] = tested on: Solanum nigra; assay: Herbicidal activity in pre-emergence; details: dose of 250 g/ha, twenty-one days after treatment, vs untreated control
Method: as §10, §11, §3, §12, §13, §5, §6, §7, §8, §14

## 1-(5-tert-butyl-1,3,4-thiadiazol-2-yl)-3,4-dimethyl-2-methoxyethylcarbonate-2H-pyrrol-2-yl-5-one [Compound 3]
[1]
  Herbicidal activity in post-emergence (percentage of damage, scale 0-100%): 90%
[2]
  Herbicidal activity in post-emergence (percentage of damage, scale 0-100%): 95%
[3]
  Herbicidal activity in post-emergence (percentage of damage, scale 0-100%): 90%

## CC1=C(C)C(OC(=O)C2CC2)N(c2cc(C(C)(C)C)on2)C1=O (stereo not drawn) [Compound 4, 1-(5-tert-butylisoxazole-3-yl)-2-cyclo-propanecarbonyloxy-3,4-dimethyl-2H-pyrrol-5-one]
[4]
  Herbicidal activity in pre-emergence (percentage of damage, scale 0-100%): 100%
[5]
  Herbicidal activity in pre-emergence (percentage of damage, scale 0-100%): 80%
[6]
  Herbicidal activity in pre-emergence (percentage of damage, scale 0-100%): 90%
[7]
  Herbicidal activity in pre-emergence (percentage of damage, scale 0-100%): 100%
[8]
  Herbicidal activity in pre-emergence (percentage of damage, scale 0-100%): 100%
[1]
  Herbicidal activity in post-emergence (percentage of damage, scale 0-100%): 100%
[2]
  Herbicidal activity in post-emergence (percentage of damage, scale 0-100%): 100%
[3]
  Herbicidal activity in post-emergence (percentage of damage, scale 0-100%): 100%

## COCC(=O)OC1C(C)=C(C)C(=O)N1c1nnc(C(C)(C)C)s1 (stereo not drawn) [Compound 2, 1-(5-tert-butyl-1,3,4-thiadiazol-2-yl)-3,4-dimethyl-2-methoxyacetate-2H-pyrrol-5-one]
[4]
  Herbicidal activity in pre-emergence (percentage of damage, scale 0-100%): 95%
[5]
  Herbicidal activity in pre-emergence (percentage of damage, scale 0-100%): 92%
[6]
  Herbicidal activity in pre-emergence (percentage of damage, scale 0-100%): 100%
[7]
  Herbicidal activity in pre-emergence (percentage of damage, scale 0-100%): 100%
[8]
  Herbicidal activity in pre-emergence (percentage of damage, scale 0-100%): 95%
[1]
  Herbicidal activity in post-emergence (percentage of damage, scale 0-100%): 100%
[2]
  Herbicidal activity in post-emergence (percentage of damage, scale 0-100%): 100%
[3]
  Herbicidal activity in post-emergence (percentage of damage, scale 0-100%): 90%

## CC1=C(C)C(O)N(c2cc(C(C)(C)C)on2)C1=O (stereo not drawn) [CR1, 1-(5-tert-butylisoxazol-3-yl)-2-hydroxy-3,4-dimethyl-2H-pyrrol-5-one, reference compound]
[4]
  Herbicidal activity in pre-emergence (percentage of damage, scale 0-100%): 90%
[5]
  Herbicidal activity in pre-emergence (percentage of damage, scale 0-100%): 60%
[6]
  Herbicidal activity in pre-emergence (percentage of damage, scale 0-100%): 80%
[7]
  Herbicidal activity in pre-emergence (percentage of damage, scale 0-100%): 79%
[8]
  Herbicidal activity in pre-emergence (percentage of damage, scale 0-100%): 90%
[1]
  Herbicidal activity in post-emergence (percentage of damage, scale 0-100%): 40%
[2]
  Herbicidal activity in post-emergence (percentage of damage, scale 0-100%): 85%
[3]
  Herbicidal activity in post-emergence (percentage of damage, scale 0-100%): 40%
